# Measured values: patent US5532229A, “Topical administration of vitamin D to mammals” (priority 1994, dated 1996)
# How the values were obtained:
# [1] = Experiment 5: toxic effects after 2 weeks of high doses of dermal or oral vitamin D3; assay type: in vivo, Male Wistar rats
# Protocol: Toxicity: Long-term effects of increasing doses of vitamin D3 given dermally or by gastric tube.
# This experiment was to compare potential toxic effects of vitamin D3 given for a 2 wk period, at the near-fatal dose of 800 μg per day by gastric tube, or by dermal administration at 800 μg/day or 2600 μg/day. Another goal was find evidence of saturable dermal uptake by including [^14 C]-vitamin D3 to monitor its removal from the skin at the high doses of vitamin D3.
# Male Wistar rats, 190±10 g were obtained and divided into three groups of 7. They were treated for 2 weeks with one the following: 2000 nmol/day of vitamin D3 by gastric tube; 800 μg/day applied to a 2×2 cm patch of skin on the back; 2600 μg/day skin. The day before killing, 66,000 counts per minute of [^14 C]-vitamin D3 was applied along with the dermal dose to permit a determination of uptake from the skin. The rats were killed after two weeks for analysis of serum, urine, kidney, and aorta. The calcium in urine and acid-treated homogenate of kidney was measured by chemical colorimetry; aorta calcium was measured by treating with nitric acid measuring calcium by atomic absorption.
# [2] = Experiment 3: serum 25(OH)D3 after 6 weeks of vitamin D3 nutrition; assay type: in vivo, Male Wistar rats
# Protocol: Male, Wistar rats were obtained at 120-130 g, and placed on a 0.01% calcium, 0.7% phosphate diet that was vitamin D deficient (Teklad Test Diets, Madison, WI) this was for one week to help deplete vitamin D stores. For the next three weeks the rats were fed the vitamin D-deficient diet, but with normal, 0.5%, calcium. Starting with these 3 weeks, the rats were divided into four vitamin D3 -treatment groups, initially, nine rats per group: group a) supplemented once weekly with 0.6 μg vitamin D3 (average dose, 0.08 μg/day); group b) supplemented once every second day with vitamin D3 to provide 2 nmol/day, i.e., each dose was 4 nmol of vitamin D3; group c) supplemented once every second day with vitamin D3 to provide 8 μg/day. The preceding groups all received the vitamin D3 through an infant-feeding tube inserted through the mouth into the stomach. One group, d), received its vitamin D3 in the ethanol applied onto a shaved 2 cm×2 cm patch of skin on the back, this was done every second day to provide vitamin D3 at 8 μg/day. The volume of each dose of vitamin D3 given was adjusted so that the stated doses are per 250 g body weight. […]
# Biochemical measurements. 1,25(OH)2 D3 in serum was measured by calf-thymus receptor-binding assay after initial purification of 1,25(OH)2 D3 with C18-OH cartridges (5). For the serum volumes that were minimal, serum was measured out in 50 μL increments, and the final result was adjusted for the volume of sample analyzed. […] The material eluting as 1,25(OH)2 D3 was evaporated and redissolved in acetonitrile: water for further purification with C18-OH cartridges and quantitation by thymus receptor assay, as described for serum. Renal 24-hydroxylase was measured by incubating mitochondria with [^3 H]-25(OH)D3 as substrate (Vieth and Fraser, J Biol Chem. 254:12455-12460;1979). […]
smiles,measurement,setting,value
C=C1CC[C@H](O)C/C1=C/C=C1\CCC[C@]2(C)[C@@H]([C@H](C)CCCC(C)C)CC[C@@H]12 [vitamin D3],urinary calcium (above the usual rat normal),[1]; all treatments,> 1 μmol/mmol creatinine
same,serum calcium (above the normal rat value),"[1]; all treatments, 2 weeks",> 2.4 mmol/L
same,calcium accumulation in kidney and aorta,"[1]; by gastric tube, 2 weeks",substantial in both the kidney and the aorta
same,Urine Ca/create Day 4,[1]; dermal 800 μg/day,7.9
same,Urine Ca/create Day 13,[1]; dermal 800 μg/day,10.0
same,Weight gain,[1]; dermal 800 μg/day,91 g/2 wk
same,Total Aorta Calcium,"[1]; dermal 800 μg/day, 2 weeks",< 10 nmol
same,Total Renal Calcium,"[1]; dermal 800 μg/day, 2 weeks",13.3 µmol/L
same,Urine Ca/create Day 4,[1]; dermal 2600 μg/day,10.3
same,Urine Ca/create Day 13,[1]; dermal 2600 μg/day,10.8
same,Weight gain,[1]; dermal 2600 μg/day,76 g/2 wk
same,Total Aorta Calcium,"[1]; dermal 2600 μg/day, 2 weeks",< 10 nmol
same,Total Renal Calcium,"[1]; dermal 2600 μg/day, 2 weeks",13.3 µmol/L
same,difference in serum 25(OH)D3 between the two dermal groups,[1]; dermal 800 vs 2600 μg/day,no statistical difference
same,Weight gain,"[1]; dermal, same or higher doses, 2 wk",normal weight gain
same,calcium accumulation in kidney and aorta,"[1]; dermally treated, 2 weeks",no evidence of either effect
same,Urine Ca/create Day 4,[1]; gastric 800 μg/day,12.0
same,Urine Ca/create Day 13,[1]; gastric 800 μg/day,9.9
same,Weight gain,[1]; gastric 800 μg/day,7 g/2 wk
same,Total Aorta Calcium,"[1]; gastric 800 μg/day, 2 weeks",361 nmol
same,Total Renal Calcium,"[1]; gastric 800 μg/day, 2 weeks",77 µmol/L
same,"serum 1,25(OH)2 D3, gastric vs skin groups","[1]; gastric, 2 weeks","lower serum 1,25(OH)2 D3 concentrations than with either skin group"
same,Weight gain,"[1]; near-toxic gastric dose, 2 wk",prevented the rats from gaining weight
same,effectiveness of dermal vs oral route in raising 25(OH)D3,[2]; 20 nmol/250 g/day,85%
same,serum 25(OH)D3,[2]; dermal 8 μg/day,127 ± 4 nmol/L
same,serum 25(OH)D3,[2]; gastric 8 μg/day,148 ± 10 nmol/L
